Measurements reported in patent publication US7538220B2, “Intermediates in the preparation of homocamptothecin analogs” (University of Pittsburgh - of the Commonwealth System of …, priority 1999, dated 2009).
Values joined by “and” are separate entries in the source; they are usually repeats but may differ in a detail not shown here. Equal entries are not always repeated. Where two headings read alike, the source gives them in different places.

Tests used:
[1] = Lactone ring stability in whole human blood by HPLC; conditions: for Percent Lactone in Human Blood after 3 Hours of Incubation: pH 7.4, 37° C. (Table 4)
Procedure: All experiments were conducted at pH 7.4 and 37° C.
(§1) HPLC solvents were from Fisher Scientific.

[2] = PBS solution containing HSA; cited from earlier work
[3] = cited from earlier work
[4] = Lactone ring stability in mouse blood by HPLC; conditions: for Ratio of Lactone Level Mouse/Human: blood, 3 hours of incubation; for Percent Lactone in Mouse Blood after 3 Hours of Incubation: pH 7.4, 37° C.
Procedure: The hydrolysis kinetics of camptothecins in the presence of different blood components were determined by a quantitative C18 reversed-phase high-performance liquid chromatography (HPLC) assay modified from methodologies described previously in the literature cited above. The preparation of whole blood and fractionated blood samples was carried out as described previously. Crystallized HSA of high purity (>97%) from Sigma Chemical (St. Louis, Mo.) was used. HSA stock solutions were prepared in PBS buffer with a final pH of 7.40±0.05. HSA concentrations were determined by UV absorbance at 278 nm using an extinction coefficient of 39,800 M^−1 cm^−1 (Porter, 1992). All other agents were reagent grade and were used without further purification. High purity water provided by a Milli-Q UV PLUS purification system (Bedford, Mass.) was utilized in all experiments. HPLC solvents were from Fisher Scientific. Human plasma and red blood cells were obtained from Central Kentucky Blood Center. […] Blood from mice was collected in heparinized tubes and stored at 5-10° C. until use.
HPLC assays were performed either on a Waters Alliance 2690 HPLC system equipped with a temperature-controlled autosampler and Waters 474 scanning fluorescence detector. A second HPLC system was composed of a Waters HPLC system composed of 501 HPLC pumps, 717 Plus temperature-controlled autosampler and 470 scanning fluorescence detector. The HPLC assay procedures used for the homosilatecans are summarized below. Solvent A consisted of acetonitrile and Solvent B was 2% triethylammonium acetate, pH 5.5, with a flow rate of 1 ml/min. For DB-38 an isocratic elution was used: 33% Solvent A; 67% Solvent B; λex:345 nm and λem:518 nm. For DB-81 an isocratic elution was used: 56% Solvent A; 44% Solvent B; and λex:375 nm and λem:444 nm. For DB-90 an isocratic elution was used: 41% Solvent A; 59% Solvent B; λex:412 nm and λem:526 nm. For DB-91 an isocratic elution of 42% Solvent A, 58% Solvent B, and λex:392 nm and λem:562 nm.
To determine drug stability in whole blood, whole blood was incubated at 37° C. for 30 min and pH determined. Blood pH was adjusted to 7.4+/−0.5 using either 0.1 M KOH or 0.1 M HCl. Blood samples were incubated at 37° C. for 30 min and pH remeasured to ensure that it is within the range before an individual assay was started. Aliquots of blood (2 ml each) were removed and placed in three disposable glass test tubes and the tubes were incubated at 37° C. […] Incubation at 37° C. was continued and 150 μl aliquots were removed at different time points and added to 600 μl of cold methanol (−20° C.) in an eppendorf tube. The tube was then vortexed for 10 sec and centrifuged in a table top microcentrifuge at 8000 rpm for 45 sec. The Supernatant was removed and placed in an autosampler vial and the vial quickly added to the autosampler maintained at 4° C. The sample was analyzed immediately on the HPLC set-up. The data analysis was as described for the drug in PBS only samples.

[5] = Fluorescence anisotropy titration, equilibrium binding to DMPC small unilamellar vesicles; type: physicochemical; conditions: electroneutral DMPC vesicles, PBS pH 7.4, 37° C.; K values subject to 10% uncertainty
Procedure: (§2) As a consequence of the brilliant fluorescence emissions from the newly synthesized homosilatecans (a summary of the spectral parameters can be found in Table 1), the lipid bilayer adsorption isotherms summarized in FIG. 4 were relatively free from any background signal. The method of fluorescence anisotropy titration was used to construct the adsorption isotherms. The experiments were conducted at drug concentrations of 1 μM in PBS buffer (37° C.). […] Because of the potential of the lactone ring of the homosilatecans and camptothecins to hydrolyze in PBS, anisotropy values at each lipid concentration were determined immediately (approx. 1 min.) following the addition of the lactone form of each agent to the liposome suspension as to minimize any possibility of conversion to the carboxylate form. Using drug concentrations of 1 μM and long pass filters to isolate emitted light from background signal (that is, scattered exciting light and extraneous fluorescence signal resulting from the possible presence of impurities), signal levels from drugs dissolved in PBS buffer were typically 99.97% in the absence of membrane and greater than 98% in the presence of membrane. Adsorption isotherms were used to determine overall association constants for the homosilatecan, silatecan, and camptothecin drugs. Overall association constants are defined as: K=[AB]/[AF][L] where [AB] represents the concentration of bound drug, [AF] represents the concentration of free drug, and [L] represents the total lipid concentration in the vesicle suspension. This equation is valid when the concentration of free lipid is approximately equal to the concentration of total lipid (that is, the concentration of free lipid is in significant excess over the concentration of bound drug). Provided this condition is satisfied, K may be determined from the inverse of the slope of a double reciprocal plot. In such a double reciprocal plot, 1/fraction of the total drug bound is plotted vs. 1/lipid concentration, with a y-intercept value of 1 (for a system displaying binding site homogeneity). Such double-reciprocal plots for the associations of the new homosilatecans analogs (both lactone and carboxylate forms) with DMPC and DMPG small unilamellar vesicle (SUV) preparations were linear with good correlation coefficients.
(§3) The studies summarized in Table 2 examine the structural basis of homosilatecan associations for lipid bilayers. Two types of membranes were included in these studies which were conducted under near physiological conditions of pH and temperature; these membranes include fluid-phase and electroneutral L-α-dimyristoylphosphatidyl-choline (DMPC); and fluid-phase and negatively-charged L-α-dimyristoylphosphatidylglycerol (DMPG). DMPC and DMPG have identical chain length but the charges on their head groups differ.
(§4) In the studies of Table 2, binding isotherms were constructed using the method of fluorescence anisotropy titration as discussed above, and K values were determined from the slopes of the double-reciprocal plots. The K values are subject to 10% uncertainty. One of the most striking features of the data contained in Table 2 is the strong modulation which can be achieved through the creation of A,B,E-ring modified camptothecins (for example, the homosilatecans known as DB-38, DB-90, and DB-91) or B,E-ring modified camptothecins (for example, the homosilatecan known as DB-81). Homosilatecans containing either a sole substitution at the 7 position or dual substitution at the 7 and 10 positions have been created and found to display very high lipophilicities. Included in Table 2 are camptothecin compounds (topotecan and camptothecin). For DB-81, the lipophilicity for DMPC membranes relative to corresponding value for topotecan increases over 1,400-fold. Data for these agents were included to show the highly lipophilic nature of the new homocamptothecins relative to compounds such as topotecan and camptothecin. […]

[6] = Fluorescence anisotropy titration, equilibrium binding to DMPG small unilamellar vesicles; type: physicochemical; conditions: negatively charged DMPG vesicles, PBS pH 7.4, 37° C.; K values subject to 10% uncertainty
Procedure: as §2, §3, §4

[7] = Lactone ring stability in PBS by HPLC; type: physicochemical; conditions: PBS pH 7.4, 3 hours, 37° C., 1 μM
Procedure: FIG. 12 contrasts the improved stabilities of four novel homosilatecans of the present invention with their corresponding silatecan structure containing the α-hydroxylactone functionality. All the experiments of FIG. 12 were conducted in PBS at 37° C.
as §1
To determine the stabilities of homosilatecans in PBS, an aliquot of each of the homosilatecans in DMSO was added to phosphate buffered saline (PBS), pH 7.4 in a HPLC autosampler vial maintained at 37° C. in a water bath to result in final drug concentration of 1 μM. The drug-containing vial was quickly transferred to the autosampler maintained at 37° C. and aliquots analyzed at various time points. All the determinations were done in triplicate. The data was collected and analyzed using Waters Millenium software. The fraction of lactone was calculated using the peak area of lactone and carboxylate peak and using the lactone/carboxylate ratio.

[8] = test system: MDA-MB-435 tumorigenic metastatic human breast cancer cells; assay: Cytotoxicity, sulphorrhodamine B (SRB) assay; type: cell-based; conditions: MDA-MB-435, 72 hr exposure, SRB assay, without HSA, read-out: IC50 (w/o HSA)
Procedure: Cytotoxicity measurements were conducted using MDA-MB-435 tumorigenic human breast cancer cells. The cells were exposed to a range of drug concentrations for 72 hr exposure periods and then viability was assessed using a sulphorrhodamine B (SRB) assay. The SRB measures the total protein levels in the living cells. Proteins from dead cells are lysed and removed in the washing step before TCA fixation. However, it is possible that cells in the early stage of death still have their membrane integrity and therefore retain the protein contents inside. As a result, the optical density at 490 nm can sometimes be overestimated and the cytotoxicity underestimated. […] The SRB assay is now a well regarded assay and was recently approved by NCl as a standard assay for anticancer drug screening. […] Each IC50 value represents the average of three separate trials with each dosage level studied in triplicate.

[9] = biological target: T1, human serum albumin (HSA) (Homo sapiens, UniProt P02768); assay: Binding of camptothecin lactone and carboxylate forms to human serum albumin, frequency-domain fluorescence lifetime spectroscopy
T1 sequence (P02768 25-609): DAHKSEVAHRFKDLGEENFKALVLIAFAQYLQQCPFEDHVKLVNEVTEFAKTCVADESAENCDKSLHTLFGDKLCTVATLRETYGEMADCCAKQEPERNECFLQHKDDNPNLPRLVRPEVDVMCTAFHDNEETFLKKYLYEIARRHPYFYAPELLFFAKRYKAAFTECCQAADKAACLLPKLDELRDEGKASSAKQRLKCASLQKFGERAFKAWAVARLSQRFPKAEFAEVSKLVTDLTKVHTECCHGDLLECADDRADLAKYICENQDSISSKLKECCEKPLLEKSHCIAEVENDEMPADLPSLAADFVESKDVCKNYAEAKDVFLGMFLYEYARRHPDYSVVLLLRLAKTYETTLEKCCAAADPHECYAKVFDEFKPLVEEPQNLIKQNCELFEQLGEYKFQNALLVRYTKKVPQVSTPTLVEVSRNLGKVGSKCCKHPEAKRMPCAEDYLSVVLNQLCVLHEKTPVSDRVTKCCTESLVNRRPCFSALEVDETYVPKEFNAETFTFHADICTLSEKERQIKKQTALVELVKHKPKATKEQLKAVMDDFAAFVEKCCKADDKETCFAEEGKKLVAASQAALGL

[10] = previously observed, Burke et al. 1993; cited from earlier work
[11] = biological target: T1, human serum albumin (HSA); conditions: PBS pH 7.4; cited from earlier work
[12] = whole human blood; cited from earlier work
[13] = whole human blood, 3 hours incubation, pH 7.4, 37° C., 1 μM

CC[C@@]1(O)C(=O)OCc2c1cc1n(c2=O)Cc2cc3c(N)cccc3nc2-1 [9-Aminocamptothecin, 9-aminocamptothecin]
Percent Lactone in Human Blood after 3 Hours of Incubation [1]: 0.4% | % Lactone [1, 13]: approx. 0.3% | extent of hydrolysis [2]: > 99% | percentage of lactone at equilibrium ([3]; human plasma, pH 7.4, 37° C.): 0.2% | fraction converted to carboxylate ([3]; plasma): > 99.5% | Ratio of Lactone Level Mouse/Human [4]: 100 | Percent Lactone in Mouse Blood after 3 Hours of Incubation [4]: 38%

CC[C@@]1(O)C(=O)OCc2c1cc1n(c2=O)Cc2cc3ccccc3nc2-1 [Camptothecin]
KDMPC overall association constant [5]: 100 M⁻¹ | KDMPG overall association constant [6]: 100 M⁻¹ | % Lactone [7]: approximately 12% | Percent Lactone in Human Blood after 3 Hours of Incubation [1]: 7% | lactone level at equilibrium relative to 9-aminocamptothecin ([1]; whole human blood): approximately 10 fold | % Lactone [1, 13]: approx. 6% | IC50 [8]: 12 ± 4 nM | HSA binding preference for the carboxylate relative to the lactone [9]: 200 fold | K, HSA binding of the carboxylate form ([9]; carboxylate form): 1.2e+06 M⁻¹ | K, HSA binding of the lactone form ([9]; lactone form): ≈ 5.5×10^3 M^−1 | decrease in affinity for DMPC upon opening of the lactone ring [10]: 3 fold | HSA binding affinity of carboxylate form relative to lactone form [11]: 200 fold and > 100 fold | percentage of lactone at equilibrium ([3]; human plasma, pH 7.4, 37° C.): 0.2% | t1/2 of lactone ring opening ([3]; human plasma, pH 7.4, 37° C.): 11 min | t1/2 of lactone ring opening [12]: 22 min | Ratio of Lactone Level Mouse/Human [4]: 3 | Percent Lactone in Mouse Blood after 3 Hours of Incubation [4]: 20%

CCc1c2c(nc3ccc(OC(=O)N4CCC(N5CCCCC5)CC4)cc13)-c1cc3c(c(=O)n1C2)COC(=O)[C@]3(O)CC [CPT-11]
lactone level at equilibrium relative to 9-aminocamptothecin ([1]; whole human blood): approximately 40 fold | % Lactone [1, 13]: approx. 21.0% | percentage of lactone at equilibrium [12]: 21.0%

CCc1c2c(nc3ccc(O)cc13)-c1cc3c(c(=O)n1C2)COC(=O)[C@]3(O)CC [SN-38, 7-ethyl-10-hydroxycamptothecin]
KDMPC overall association constant [5]: 300 M⁻¹ | lactone level at equilibrium relative to 9-aminocamptothecin ([1]; whole human blood): approximately 40 fold | % Lactone [1, 13]: approx. 30% | percentage of lactone at equilibrium [12]: 19.5%

CC[C@@]1(O)C(=O)OCc2c1cc1n(c2=O)Cc2cc3c(CN(C)C)c(O)ccc3nc2-1 [Topotecan, reference compound]
KDMPC overall association constant [5]: 10 M⁻¹ | KDMPG overall association constant [6]: 50 M⁻¹ | % Lactone [7]: approximately 12% | lactone level at equilibrium relative to 9-aminocamptothecin ([1]; male, human, 1 μM, pH 7.4): 20 fold | % Lactone ([1]; male, human, 3 h, 1 μM, pH 7.4): approx. 15% | percentage of lactone at equilibrium [12]: 11.9%

CCC(O)(CC(=O)O)c1cc2n(c(=O)c1CO)Cc1c-2nc2ccc(N)cc2c1[Si](C)(C)C(C)(C)C (stereo not drawn) [DB-90 carboxylate form, carboxylate form of 7-t-butyl-dimethylsilyl-10-aminohomocamptothecin]
KDMPC overall association constant [5]: 770 M⁻¹ | KDMPG overall association constant [6]: 80 M⁻¹

CC[C@@]1(O)C(=O)OCc2c1cc1n(c2=O)Cc2c-1nc1ccc(O)cc1c2[Si](C)(C)C(C)(C)C [DB-67, reference compound]
KDMPC overall association constant [5]: 2,500 M^−1

CCC(O)(CC(=O)O)c1cc2n(c(=O)c1CO)Cc1c-2nc2ccc(O)cc2c1[Si](C)(C)C(C)(C)C (stereo not drawn) [DB-91 carboxylate form, ring-opened or carboxylate form of 7-t-butyldimethylsilyl-10-hydroxyhomocamptothecin]
KDMPC overall association constant [5]: 700 M⁻¹ | KDMPG overall association constant [6]: 100 M⁻¹
